Legend:
Assay in all cases: relative viability (nuclei count vs DMSO), 5 days (fraction); higher = more cells survive
[1] = compound: C1/C(=C\C2=CC=CS2)/C(=O)/C(=C/C3=CC=CS3)/C1 + COc1cccc2cc(-c3nc([C@H]4CC[C@H](C(=O)O)CC4)n4ncnc(N)c34)[nH]c12 [OSI-027] (partner 0.5 µM)
In short: (§1)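 A single step with final 0.05% Triton X-100, 1% formaldehyde and 1 ug/ml Hoechst fixed the cells and stained nuclei 5 days after treatment. Lung cancer cell lines in 1536-well plates had been treated by pin tool the day after seeding with one drug alone or a fixed anchor-drug dose plus five library-drug doses (not always all listed) in √10 steps, and nuclei were counted on 4× images. Relative viability is the ratio of nuclei in treated wells to nuclei in vehicle wells, taken as the median of duplicate plates.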

[2] = compound: C1/C(=C\C2=CC=CS2)/C(=O)/C(=C/C3=CC=CS3)/C1 + N=C(N)NC(=N)NCCc1ccccc1 [Phenformin] (partner 250 µM)
In short: as §1

[3] = compound: C[C@]12O[C@H](C[C@]1(O)CO)n1c3ccccc3c3c4c(c5c6ccccc6n2c5c31)CNC4=O [Lestaurtinib] + CC(C)C[C@H](NC(=O)[C@H](Cc1ccccc1)NC(=O)c1cnccn1)B(O)O [Bortezomib] (partner 0.002 µM)
In short: as §1

[4] = compound: C1=CC(=CC=C1C2=CC(=C(S2)NC(=O)N)C(=O)N)F [TPCA-1] + CC(C)C[C@H](NC(=O)[C@H](Cc1ccccc1)NC(=O)c1cnccn1)B(O)O [Bortezomib] (partner 0.002 µM)
In short: as §1

Cell Line	relative viability ([1]; first compound 0.2 µM)	relative viability ([1]; first compound 0.6325 µM)	relative viability ([1]; first compound 2 µM)	relative viability ([1]; first compound 6.325 µM)	relative viability ([1]; first compound 20 µM)	relative viability ([2]; first compound 0.2 µM)	relative viability ([2]; first compound 0.6325 µM)	relative viability ([2]; first compound 2 µM)	relative viability ([2]; first compound 6.325 µM)	relative viability ([2]; first compound 20 µM)	relative viability ([3]; first compound 0.005 µM)	relative viability ([3]; first compound 0.01581 µM)	relative viability ([3]; first compound 0.05 µM)	relative viability ([3]; first compound 0.1581 µM)	relative viability ([3]; first compound 0.5 µM)	relative viability ([4]; first compound 0.04 µM)	relative viability ([4]; first compound 0.1265 µM)	relative viability ([4]; first compound 0.4 µM)	relative viability ([4]; first compound 1.265 µM)	relative viability ([4]; first compound 4 µM)
NCI-H1650	0.727	0.713	0.743	0.544	0.733	0.495	0.434	0.426	0.391	0.467	0.183	0.236	0.197	0.199	0.193	0.26	0.219	0.204	0.203	0.208
NCI-H1651	0.684	0.803	0.815	0.676	0.789	0.352	0.372	0.446	0.26	0.323	0.878	1.07	0.883	1.03	0.648	0.909	0.927	0.917	0.891	0.649
NCI-H1666	0.874	0.863	0.83	0.732	0.964	0.55	0.596	0.589	0.522	0.584	0.87	1.25	0.969	0.765	0.35	0.808	0.807	0.996	0.767	0.8
NCI-H1734	0.584	0.668	0.741	0.519	0.593	0.415	0.403	0.443	0.363	0.412	1.08	0.904	0.681	0.456	0.325	1.02	0.816	1.12	0.938	0.554
NCI-H1755	0.787	0.709	0.79	0.683	0.759	0.636	0.642	0.63	0.505	0.61	1.01	0.95	0.938	0.455	0.371	0.948	0.9	1.05	0.881	0.832
NCI-H1792	0.84	0.619	0.754	0.694	0.67	0.514	0.273	0.67	0.287	0.322	1.29	1.08	0.5	1.07	0.437	0.97	0.924	0.84	0.964	0.559
NCI-H1915	0.636	0.632	0.657	0.249	0.681	0.365	0.378	0.362	0.205	0.37	0.971	1.06	0.6	0.949	0.284	0.949	0.961	0.954	0.664	0.886
NCI-H1975	0.944	0.689	–	0.661	0.739	0.399	0.388	–	0.37	0.411	0.467	0.368	0.345	0.318	0.217	0.327	0.417	0.321	0.437	0.26
NCI-H1993	0.627	0.54	0.585	0.447	0.523	0.514	0.518	0.494	0.42	0.517	1.11	1	1.45	0.788	0.594	1.13	–	1.14	1.28	0.836
NCI-H2009	0.622	0.755	0.707	0.557	0.607	0.511	0.52	0.493	0.453	0.426	1.01	0.967	0.801	0.755	0.167	1.25	0.921	1.07	0.516	0.536
NCI-H2023	0.394	0.469	0.425	0.304	0.364	0.414	0.488	0.439	0.396	0.383	1.03	1.11	0.731	0.65	0.108	1.07	0.941	1.11	0.845	0.386
NCI-H2085	0.884	1.04	0.754	0.685	0.678	0.81	0.791	0.839	0.619	0.644	1	0.969	0.973	1.33	0.803	1.13	1.06	1.04	0.965	1.01
NCI-H2087	0.716	0.688	0.769	0.457	0.42	0.5	0.546	0.553	0.393	0.431	0.882	0.936	0.745	0.764	0.354	0.777	0.709	0.666	0.815	0.455
NCI-H2126	0.74	0.645	0.711	0.598	0.774	0.549	0.551	0.566	0.483	0.536	1.19	1.11	0.957	1.17	0.861	1.15	1.04	1.07	1.06	1.09
NCI-H2228	0.62	0.602	0.81	0.521	0.537	0.422	0.297	0.369	0.335	0.357	0.994	0.805	0.629	0.476	0.185	1.01	0.891	0.916	1.12	0.6
NCI-H2347	0.482	0.391	0.429	–	0.389	0.362	0.592	0.283	–	0.49	0.871	1.49	1.17	0.961	0.797	0.945	–	0.894	0.662	1.16

Source: the supplement of paper PMC10307832
